Experimental data published in ChEMBL document CHEMBL4765365, “Design, synthesis and antitumour evaluation of pyrrolo[1,2-f]-phenanthridine and dibenzo[f,h]pyrrolo[1,2-b]isoquinoline derivatives” (Eur J Med Chem, 2020).
The source made the active and inactive calls. The calls are words filed in the database; no cut-off is given here.

Assays:
[1] = tested on: CCRF-CEM; assay: Cytotoxicity against human CCRF-CEM cells assessed as reduction in cell viability incubated for 72 hrs by XTT assay; format: functional, cell-based
[2] = tested on: CEM-VLB; assay: Cytotoxicity against human CEM-VLB cells assessed as reduction in cell viability incubated for 72 hrs by XTT assay; format: functional, cell-based
[3] = tested on: NCI-H1650; assay: Cytotoxicity against human NCI-H1650 cells assessed as reduction in cell viability incubated for 72 hrs by XTT assay; format: functional, cell-based; conditions: NCI-H1650, 72 h
[4] = tested on: NCI-H460; assay: Cytotoxicity against human NCI-H460 cells assessed as reduction in cell viability incubated for 72 hrs by XTT assay; format: functional, cell-based; conditions: NCI-H460, 72 h
[5] = tested on: HCT-116; assay: Cytotoxicity against human HCT-116 cells assessed as reduction in cell viability incubated for 72 hrs by XTT assay; format: functional, cell-based; conditions: HCT-116, 72 h
[6] = Cytotoxicity against human PacaS1 cells assessed as reduction in cell viability incubated for 72 hrs by XTT assay; format: functional, cell-based; conditions: PacaS1, 72 h
[7] = tested on: dsDNA; assay: Induction of pBR322 DNA interstand crosslink at 1 to 20 uM incubated for 2 hrs by agarose gel electrophoresis assay; conditions: dose 1-20 µM

| Structure (SMILES) | IC50 [1] [µM] | IC50 [2] [µM] | IC50 [3] [µM] | IC50 [4] [µM] | IC50 [5] [µM] | IC50 [6] [µM] | Activity [7] |
| --- | --- | --- | --- | --- | --- | --- | --- |
| CC[C@]1(O)C[C@@H]2CN(CCc3c([nH]c4ccccc34)[C@@](C(=O)OC)(c3cc4c(cc3OC)N(C)[C@H]3[C@@](O)(C(=O)OC)[C@H](OC(C)=O)[C@]5(CC)C=CCN6CC[C@]43[C@@H]65)C2)C1 [VINBLASTINE] | 0.00141 | 0.393 |  |  |  |  |  |
| COc1ccc(-c2c(CO)c(CO)c3n2Cc2c(c4ccccc4c4ccccc24)C3)cc1 | 2.99 | 2.83 |  |  |  |  |  |
| CCNC(=O)OCc1c(COC(=O)NCC)c2c3ccccc3c3ccccc3n2c1-c1ccccc1 | 4.09 | 2.48 | 18.2 | 9.03 | 21 | 11.1 |  |
| CCNC(=O)OCc1c(COC(=O)NCC)c2c3ccccc3c3ccccc3n2c1C | 0.37 | 0.37 | 4.47 | 1.2 | 2.1 | 2.26 |  |
| CCNC(=O)OCc1c(COC(=O)NCC)c2c3ccccc3c3ccccc3n2c1-c1ccc(OC)cc1 | 3.01 | 2.85 |  |  |  |  |  |
| OCc1c(CO)c(-c2ccccc2)n2c1Cc1c(c3ccccc3c3ccccc13)C2 | 3.21 | 3.66 | 7.95 | 2.34 | 5.99 | 4.45 |  |
| Cc1c(CO)c(CO)c2n1Cc1c(c3ccccc3c3ccccc13)C2 | 0.36 | 0.34 | 2.69 | 0.18 | 1.57 | 1.8 | Active |
| OCc1c(CO)c2c3ccccc3c3ccccc3n2c1-c1ccccc1 | 9.82 | 10.9 | 39 | 37.5 | 73.3 | 36.7 |  |
| OCc1c(CO)c(-c2ccc(F)cc2)n2c1Cc1c(c3ccccc3c3ccccc13)C2 | 6.5 | 6.14 |  |  |  |  |  |
| CCNC(=O)OCc1c(COC(=O)NCC)c2c3ccccc3c3ccccc3n2c1CC | 1.89 | 1.68 | 10.1 | 9.09 | 8.53 | 5.05 |  |
| CC(C)NC(=O)OCc1cn2c3ccccc3c3ccccc3c2c1COC(=O)NC(C)C | 1.75 | 2.21 | 9.62 | 7.2 | 2.27 | 15.3 |  |
| CCNC(=O)OCc1c(COC(=O)NCC)c2c3ccccc3c3ccccc3n2c1-c1ccc(F)cc1 | 3.41 | 3.4 |  |  |  |  |  |
| CC(C)NC(=O)OCc1c(COC(=O)NC(C)C)c2c3ccccc3c3ccccc3n2c1-c1ccccc1 | 3.15 | 4.48 | 16.3 | 14.9 | 16.2 | 13.8 |  |
| CC(C)NC(=O)OCc1c(COC(=O)NC(C)C)c2c3ccccc3c3ccccc3n2c1-c1ccc(F)cc1 | 4.1 | 3.17 |  |  |  |  |  |
| CCc1c(CO)c(CO)c2n1Cc1c(c3ccccc3c3ccccc13)C2 | 1.38 | 1.08 | 2.39 | 1.33 | 2.7 | 2.66 | Active |
| Cc1c(CO)c(CO)c2c3ccccc3c3ccccc3n12 | 0.91 | 0.55 | 4.46 | 2.87 | 1.88 | 3.5 | Active |
| CCNC(=O)OCc1cn2c3ccccc3c3ccccc3c2c1COC(=O)NCC | 1.28 | 1.24 | 5.73 | 4.25 | 1.8 | 4.41 |  |
| CCc1c(COC(=O)NC(C)C)c(COC(=O)NC(C)C)c2c3ccccc3c3ccccc3n12 | 1.89 | 1.55 | 10.2 | 4.98 | 16.2 | 4.58 |  |
| Cc1c(COC(=O)NC(C)C)c(COC(=O)NC(C)C)c2c3ccccc3c3ccccc3n12 | 0.35 | 0.34 | 5.17 | 1.19 | 2.12 | 1.8 |  |
| COc1ccc(-c2c(COC(=O)NC(C)C)c(COC(=O)NC(C)C)c3c4ccccc4c4ccccc4n23)cc1 | 2.19 | 2.76 |  |  |  |  |  |
| CCc1c(CO)c(CO)c2c3ccccc3c3ccccc3n12 | 7.39 | 2.89 | 13.6 | 9.48 | 11.5 | 6.2 |  |
| OCc1c(CO)c2c3ccccc3c3ccccc3n2c1-c1ccc(F)cc1 | 8.09 | 6.44 |  |  |  |  |  |
| COc1ccc(-c2c(CO)c(CO)c3c4ccccc4c4ccccc4n23)cc1 | 6.34 | 4.77 |  |  |  |  |  |
